US11739077B2, “Small molecule inhibitors of ubiquitin specific protease 1 (USP1) and uses thereof” (Insilico Medicine IP Limited, priority 2021, dated 2023)

What was measured:
[1] = biological target: Human recombinant USP1/UAF1 (Homo sapiens (Human), UniProt O94782); assay: Enzymatic assay, USP1/UAF1 with Ubiquitin Rhodamine 110; assay type: biochemical; conditions: 2 nM USP1/UAF1, 500 nM Ubiquitin Rhodamine 110, 15 minutes preincubation at RT
Experimental: Human recombinant USP1/UAF1 expressed in baculovirus infected Sf21 cells were used (R&D, E-568-050). Test compound and/or vehicle was incubated with 2 nM of USP1/UAF1 in modified HEPES buffer pH 8.0 for 15 minutes at RT. The reaction was initiated by addition of 500 nM of Ubiquitin Rhodamine 110 (R&D, U-555-050) for kinetic reading. Slope change of fluorescence intensity was read spectrofluorimetrically at 485 nm/535 nm.

[2] = tested on: MDA-MB-436 cells; assay: MDA-MB-436 breast cancer cell proliferation assay (CellTiter-Glo); assay type: cell-based; conditions: Homo sapiens, 168 h, 7 days
Experimental: MDA-MB-436 cells were grown in Leibovitz's L-15 medium with 10 ug/ml insulin, 16 ug/ml glutathione, 10% FBS. Cells were passaged at subconfluence after trypsinization and maintained in incubators at 37° C. in a humidified atmosphere with 5% CO2.
Cell proliferation was determined using CellTiter-Glo® Luminescent Cell Viability Assay (Promega, #G7573). MDA-MB-436 cells were seeded in 384-well plates and allowed to attach for 24 h. Compounds were added into 384-well plate by ECHO, and incubated at 37° C. in a humidified atmosphere with 5% CO2. After 7 days, CellTiter-Glo was added into 384 well plates, contents were mixed on an orbital shaker at […] for 2 min before centrifuging the plate for 2 min at 1000 rpm. After incubation at RT for 30 min, luminescence was read on envision.

Sequence of Human recombinant USP1/UAF1 (O94782 whole entry): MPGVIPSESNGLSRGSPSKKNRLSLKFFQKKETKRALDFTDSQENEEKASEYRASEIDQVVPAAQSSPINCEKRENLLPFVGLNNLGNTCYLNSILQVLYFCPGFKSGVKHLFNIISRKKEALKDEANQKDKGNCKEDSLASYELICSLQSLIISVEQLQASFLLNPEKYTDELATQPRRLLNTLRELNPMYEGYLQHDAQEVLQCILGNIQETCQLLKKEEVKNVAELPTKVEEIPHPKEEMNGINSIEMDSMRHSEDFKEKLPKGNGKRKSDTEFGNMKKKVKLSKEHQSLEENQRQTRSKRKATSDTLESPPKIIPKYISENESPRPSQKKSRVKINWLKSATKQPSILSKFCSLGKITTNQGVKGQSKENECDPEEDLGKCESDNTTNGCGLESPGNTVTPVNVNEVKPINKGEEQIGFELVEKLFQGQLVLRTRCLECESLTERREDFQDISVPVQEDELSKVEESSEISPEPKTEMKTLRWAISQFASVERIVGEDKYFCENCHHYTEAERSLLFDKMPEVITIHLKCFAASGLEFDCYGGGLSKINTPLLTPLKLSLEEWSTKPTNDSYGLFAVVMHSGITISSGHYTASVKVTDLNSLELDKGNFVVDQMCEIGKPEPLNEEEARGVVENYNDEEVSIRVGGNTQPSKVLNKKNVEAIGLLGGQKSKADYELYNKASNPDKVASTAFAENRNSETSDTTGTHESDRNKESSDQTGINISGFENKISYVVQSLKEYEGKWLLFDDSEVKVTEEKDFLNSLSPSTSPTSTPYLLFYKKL
Sequence of Human recombinant USP1/UAF1 (Q8TAF3 whole entry partner): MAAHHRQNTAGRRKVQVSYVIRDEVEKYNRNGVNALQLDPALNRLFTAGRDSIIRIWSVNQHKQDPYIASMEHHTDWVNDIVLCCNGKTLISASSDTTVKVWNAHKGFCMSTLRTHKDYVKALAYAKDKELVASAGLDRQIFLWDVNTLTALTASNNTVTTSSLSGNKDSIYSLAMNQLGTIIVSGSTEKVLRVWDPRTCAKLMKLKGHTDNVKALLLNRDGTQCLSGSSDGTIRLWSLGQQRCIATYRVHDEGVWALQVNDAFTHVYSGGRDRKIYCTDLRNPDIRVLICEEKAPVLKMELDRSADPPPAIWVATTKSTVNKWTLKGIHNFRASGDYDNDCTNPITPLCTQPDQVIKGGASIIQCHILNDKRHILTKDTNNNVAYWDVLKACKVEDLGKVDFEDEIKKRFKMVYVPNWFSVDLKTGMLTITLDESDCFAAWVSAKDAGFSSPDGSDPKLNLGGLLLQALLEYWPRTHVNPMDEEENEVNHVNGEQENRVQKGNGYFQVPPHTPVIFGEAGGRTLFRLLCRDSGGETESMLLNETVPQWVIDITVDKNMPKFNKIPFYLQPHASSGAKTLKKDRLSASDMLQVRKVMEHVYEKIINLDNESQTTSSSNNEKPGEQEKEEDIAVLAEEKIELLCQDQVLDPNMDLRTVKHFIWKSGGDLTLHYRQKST

| SMILES | IC50 [1] | IC50 [2] |
| --- | --- | --- |
| [2H]C([2H])([2H])n1nc(-c2c(OC)ncnc2C2CC2)c2c1CCN(c1ccc(-c3nc(C(F)(F)F)cn3C(C)C)cn1)C2 [Example 11, 3-(4-cyclopropyl-6-methoxypyrimidin-5-yl)-5-(5-(1-isopropyl-4-(trifluoromethyl)-1H-imidazol-2-yl)pyridin-2-yl)-1-(methyl-d3)-4,5,6,7-tetrahydro-1H-pyrazolo[4,3-c]pyridine] | < 50 nM | < 50 nM |
| COc1ncnc(C2CC2)c1-c1nn(C)c2c1CN(c1ccc(-c3nc(C(F)(F)F)cn3C)cc1)CC2 [Example 3, 3-(4-cyclopropyl-6-methoxypyrimidin-5-yl)-1-methyl-5-(4-(1-methyl-4-(trifluoromethyl)-1H-imidazol-2-yl)phenyl)-4,5,6,7-tetrahydro-1H-pyrazolo[4,3-c]pyridine] | < 50 nM | < 50 nM |
| CCn1cc(C(F)(F)F)nc1-c1ccc(N2CCc3c(c(-c4c(OC)ncnc4C4CC4)nn3C)C2)nc1 [Example 25, 3-(4-cyclopropyl-6-methoxypyrimidin-5-yl)-5-(5-(1-ethyl-4-(trifluoromethyl)-1H-imidazol-2-yl)pyridin-2-yl)-1-methyl-4,5,6,7-tetrahydro-1H-pyrazolo[4,3-c]pyridine] | < 50 nM | < 50 nM |
| [2H]C([2H])([2H])n1nc(-c2c(OC)ncnc2C2CC2)c2c1CCN(c1ccc(-c3nc(C(F)(F)F)cn3C)c(F)c1)C2 [Example 30, 3-(4-cyclopropyl-6-methoxypyrimidin-5-yl)-5-(3-fluoro-4-(1-methyl-4-(trifluoromethyl)-1H-imidazol-2-yl)phenyl)-1-(methyl-d3)-4,5,6,7-tetrahydro-1H-pyrazolo[4,3-c]pyridine] | < 50 nM | < 50 nM |
